31 compounds from patent US10730863B2, “Bridged bicyclic compounds as farnesoid X receptor modulators” (BRISTOL-MYERS SQUIBB COMPANY, priority 2017, dated 2020) can be followed below.

Sequence of FXR (Q96RI1 262-486): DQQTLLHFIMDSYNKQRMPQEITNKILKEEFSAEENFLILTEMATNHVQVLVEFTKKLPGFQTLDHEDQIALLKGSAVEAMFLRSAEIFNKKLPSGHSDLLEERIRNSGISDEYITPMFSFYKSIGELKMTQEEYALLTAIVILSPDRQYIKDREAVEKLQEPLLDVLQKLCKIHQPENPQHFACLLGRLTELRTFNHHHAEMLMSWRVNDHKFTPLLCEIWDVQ

This assay concerns the target FXR (Homo sapiens (Human), UniProt Q96RI1). In words: FXR EC50 (FXR agonist activity reported with each example). The format is cell-based.
`CCn1nc(C(=O)O)c2ccc(C34CCC(OCc5c(-c6c(Cl)cncc6Cl)noc5C5CC5)(CC3)CC4)nc21` [Example 403]: the EC50 (as a rule, the concentration needed to bring the measured effect to its halfway point) worked out at 0.004 µM.

`O=C(O)c1cc(C#CC23CCC(OCc4c(-c5c(Cl)cncc5Cl)noc4C4CC4)(CC2)CC3)cn2ccnc12` [Example 404] registered a half-maximal effective concentration (EC50) of 0.14 µM.

In turn, `O=C(O)c1ccc(OC2CCC2)c2nc(C34CCC(OCc5c(-c6c(Cl)cncc6Cl)noc5C5CC5)(CC3)CC4)ccc12` [Example 405] yielded an EC50 of 0.028 µM.

`O=C(O)c1ccc(OC2COC2)c2nc(C34CCC(OCc5c(-c6c(Cl)cncc6Cl)noc5C5CC5)(CC3)CC4)ccc12` [Example 406] came in with a concentration for a half-maximal effect (EC50) of 0.054 µM.

Regarding `O=C(O)c1ccc(O)c2nc(C34CCC(OCc5c(-c6c(Cl)cncc6Cl)noc5C5CC5)(CC3)CC4)ccc12` [Example 407], it took 0.019 µM to reach a half-maximal effect (EC50).

The compound `O=C(O)c1ccc(OC2CCCC2)c2nc(C34CCC(OCc5c(-c6c(Cl)cncc6Cl)noc5C5CC5)(CC3)CC4)ccc12` [Example 408] showed an EC50 of 0.01 µM.

Take `O=C(O)c1ccc(N2CCCC2)c2nc(C34CCC(OCc5c(-c6c(Cl)cncc6Cl)noc5C5CC5)(CC3)CC4)ccc12` [Example 409]: the EC50 was 0.081 µM.

In turn, `O=C(O)c1ccc(N2CCOCC2)c2nc(C34CCC(OCc5c(-c6c(Cl)cncc6Cl)noc5C5CC5)(CC3)CC4)ccc12` [Example 410, 2-(4-((5-cyclopropyl-3-(3,5-dichloropyridin-4-yl)isoxazol-4-yl)methoxy)bicyclo[2.2.2]octan-1-yl)-8-morpholinoquinoline-5-carboxylic acid] returned an EC50 of 0.036 µM.

`O=C(O)c1cc(C#CC23CCC(OCc4c(-c5c(Cl)cncc5Cl)noc4C4CC4)(CC2)CC3)cc2[nH]ncc12` [Example 411] registered a concentration giving a half-maximal response (EC50) of 0.089 µM.

Compound `O=C(O)c1ccc(C#CC23CCC(OCc4c(-c5c(Cl)cncc5Cl)noc4C4CC4)(CC2)CC3)c2ncccc12` [Example 412] had a concentration for a half-maximal effect (EC50) of 0.01 µM.

With `CN1CCN(c2ccc(C(=O)O)c3ccc(C45CCC(OCc6c(-c7c(Cl)cncc7Cl)noc6C6CC6)(CC4)CC5)nc23)CC1` [Example 413], a half-maximal response (EC50) required 1.5 µM.

As for `O=C(O)c1ccc(OC2CCOCC2)c2nc(C34CCC(OCc5c(-c6c(Cl)cncc6Cl)noc5C5CC5)(CC3)CC4)ccc12` [Example 414], the EC50 came out at 0.029 µM.

With `O=C(O)c1cc(C#CC23CCC(OCc4c(-c5c(Cl)cncc5Cl)noc4C4CC4)(CC2)CC3)cc2[nH]ccc12` [Example 415], a half-maximal response (EC50) required 0.063 µM.

`O=C(O)c1cc(C#CC23CCC(OCc4c(-c5c(Cl)cncc5Cl)noc4C4CC4)(CC2)CC3)c2cc[nH]c2c1` [Example 416] came in with an EC50 of 0.04 µM.

In the case of `Cc1nc(C#CC23CCC(OCc4c(-c5c(Cl)cncc5Cl)noc4C4CC4)(CC2)CC3)ccc1C(=O)O` [Example 417], the half-maximal effective concentration (EC50) was determined as 0.3 µM.

As for `CC(C)(O)COc1ccc(C(=O)O)c2ccc(C34CCC(OCc5c(-c6c(Cl)cncc6Cl)noc5C5CC5)(CC3)CC4)nc12` [Example 418, 2-(4-((5-cyclopropyl-3-(3,5-dichloropyridin-4-yl)isoxazol-4-yl)methoxy)bicyclo[2.2.2]octan-1-yl)-8-(2-hydroxy-2-methylpropoxy)quinoline-5-carboxylic acid], the midpoint of the response, the EC50, lay at 0.12 µM.

`O=C(O)c1ccc(C#CC23CCC(OCc4c(-c5c(Cl)cncc5Cl)noc4C4CC4)(CC2)CC3)nn1` [Example 419] gave a half-maximal effective concentration (EC50) of 2 µM.

`O=C(O)c1cc(C(F)(F)F)cc2nc(C34CCC(OCc5c(-c6c(Cl)cncc6Cl)noc5C5CC5)(CC3)CC4)ccc12` [Example 420] had an EC50 of 0.003 µM.

Regarding `O=C(O)c1ccc2nc(C34CCC(OCc5c(-c6c(Cl)cncc6Cl)noc5C5CC5)(CC3)CC4)ccc2n1` [Example 421], it took 0.053 µM to reach a half-maximal effect (EC50).

The compound `O=C(O)c1cc(C(F)(F)F)c2ccc(C34CCC(OCc5c(-c6c(Cl)cncc6Cl)noc5C5CC5)(CC3)CC4)nc2c1` [Example 422] showed an EC50 of 0.36 µM.

As to `O=C(O)c1cc(C(F)(F)F)cc2nc(C34CCC(OCc5c(C(C6CC6)C6CC6)noc5C5CC5)(CC3)CC4)ccc12` [Example 423, 2-(4-((5-cyclopropyl-3-(dicyclopropylmethyl)isoxazol-4-yl)methoxy)bicyclo[2.2.2]octan-1-yl)-7-(trifluoromethyl)quinoline-5-carboxylic acid], the EC50 came out at 0.067 µM.

In turn, `O=C(O)c1ccc(C2CC2)c2nc(C34CCC(OCc5c(C(C6CC6)C6CC6)noc5C5CC5)(CC3)CC4)ccc12` [Example 424] showed a concentration giving a half-maximal response (EC50) of 0.5 µM.

`CC1(c2noc(C3CC3)c2COC23CCC(c4ccc5c(C(=O)O)cccc5n4)(CC2)CC3)CC1(F)F` (stereo not shown) [Example 425, 2-(4-((5-cyclopropyl-3-(2,2-difluoro-1-methylcyclopropyl)isoxazol-4-yl)methoxy)bicyclo[2.2.2]octan-1-yl)quinoline-5-carboxylic acid] had a concentration giving a half-maximal response (EC50) of 3.4 µM.

In turn, `COc1cc(Cl)c2nc(C34CCC(OCc5c(-c6c(Cl)cncc6Cl)noc5C5CC5)(CC3)CC4)ccc2c1C(=O)O` [Example 426, 8-chloro-2-(4-((5-cyclopropyl-3-(3,5-dichloropyridin-4-yl)isoxazol-4-yl)methoxy)bicyclo[2.2.2]octan-1-yl)-6-methoxyquinoline-5-carboxy c acid] displayed an EC50 of 0.012 µM.

Regarding `CC(C)Oc1cc(Cl)c2nc(C34CCC(OCc5c(-c6c(Cl)cncc6Cl)noc5C5CC5)(CC3)CC4)ccc2c1C(=O)O` [Example 427], a half-maximal response (EC50) required 0.005 µM.

`COc1ccc2nc(C34CCC(OCc5c(-c6c(Cl)cncc6Cl)noc5C5CC5)(CC3)CC4)ccc2c1C(=O)O` [Example 428] gave an EC50 of 0.12 µM.

`O=C(O)c1c(OC2CCC2)cc(Cl)c2nc(C34CCC(OCc5c(-c6c(Cl)cncc6Cl)noc5C5CC5)(CC3)CC4)ccc12` [Example 429] came in with an EC50 of 0.004 µM.

For the compound `O=C(O)c1cc(C(F)(F)F)c2cc(CCC34CCC(OCc5c(-c6c(Cl)cncc6Cl)noc5C5CC5)(CC3)CC4)ccc2n1` [Example 430, 6-(2-(4-((5-cyclopropyl-3-(3,5-dichloropyridin-4-yl)isoxazol-4-yl)methoxy)bicyclo[2.2.2]octan-1-yl)ethyl)-4-(trifluoromethyl)quinoline-2-carboxylic acid], the half-maximal effective concentration (EC50) amounted to 0.024 µM.

`O=C(O)c1cccc2nc(C34CCC(OCc5c(-c6c(Cl)cncc6Cl)noc5C5CC5)(CC3)CC4)sc12` [Example 432, 2-(4-((5-cyclopropyl-3-(3,5-dichloropyridin-4-yl)isoxazol-4-yl)methoxy)bicyclo[2.2.2]octan-1-yl)benzo[d]thiazole-7-carboxylic acid] came in with an EC50 of 0.023 µM.

`O=C(O)c1cc(NC(=O)C23CCC(OCc4c(-c5c(Cl)cncc5Cl)noc4C4CC4)(CC2)CC3)cc(C(F)(F)F)c1` [Example 433, 3-(4-((5-cyclopropyl-3-(3,5-dichloropyridin-4-yl)isoxazol-4-yl)methoxy)bicyclo[2.2.2]octane-1-carboxamido)-5-(trifluoromethyl)benzoic acid] had an EC50 of 1.3 µM.

`O=C(O)c1cc(C(F)(F)F)cc2nc(C34CCC(OCc5c(-c6c(Cl)cncc6Cl)noc5C5CC5)(CC3)CC4)sc12` [Example 434, 2-(4-((5-cyclopropyl-3-(3,5-dichloropyridin-4-yl)isoxazol-4-yl)methoxy)bicyclo[2.2.2]octan-1-yl)-5-(trifluoromethyl)benzo[d]thiazole-7-carboxylic acid] returned an EC50 of 0.018 µM.
